Data as given in US20100190768A1, “NOVEL FUSED PYROLE DERIVATIVE” (Dainippon Sumitomo Pharma Co., Ltd., priority 2005, published 2010).

Experiments:
[1] = system: H4-III-E cells; experiment: TAT (tyrosine aminotransferase) assay; type: cell-based; settings: for Agonistic activity of 10 μM test compound / activation at 10 µM: 10 μM test compound alone, relative to maximum Dex-induced TAT activity (100%); for Antagonistic activity of 10 μM test compound: 10 μM test compound together with 0.005 μM dexamethasone, inhibitory ratio against TAT activity increase by Dex; for activation at 10 µM: read-out: Agonistic activity of 10 μM test compound
Procedure: H4-III-E cells, which had been continuously cultured in α-MEM medium A (supplemented with 10% inactivated FBS, 50 μM 2-mercapto-ethanol), were suspended in α-MEM medium A or α-MEM medium B (supplemented with 10% inactivated FBS, 50 μM 2-mercapto-ethanol, but without phenol red), and the cell suspension was seeded to a 96-well plate in an amount of 2×10^4 cells/100 μl/well, and the cells were cultured overnight. The supernatant in the medium was removed, and a test compound (100 μl, diluted with α-MEM medium A or α-MEM medium B) was added, and the cells were further cultured overnight. In order to measure the agonistic activity, a test compound was added alone, while in order to measure the antagonistic activity, a test compound was added simultaneously together with 0.005 μM dexamethasone and evaluated the extent of the inhibitory effect of said test compound against the TAT activity-inducing activity by dexamethasone.
The culture supernatant in the plate was removed by suction, and a cell lysate (20 μL; 1% NP-40, 0.2% Triton X-100, 0.25% DOC, 0.1% SDS, 1 mM EGTA, 150 mM NaCl, Tris (pH7.4), Protease inhibitor cocktail [2.5 mg/ml aprotinin, 2.5 mg/ml leupeptin, 2.5 mg/ml soybean trypsin inhibitor]) was added, and further thereto was added a TAT reaction reagent (150 μL; 10 N KOH, 0.125 M KH2PO4, 0.5 M α-ketoglutarate, 5 mM Pyridoxal-5′ phosphate, L-tyrosine), and the mixture was reacted at 37° C. for 15 minutes. Further, a 10N KOH (20 μL) was added thereto, and the mixture was reacted at 37° C. for 30 minutes, and the absorbance at 331 nm was measured by a microplate reader (SPECTRA MAX 250).
From the mean absorbance in the wells to which a test compound was added, the mean absorbance in the wells to which a compound and a TAT reaction solution were not added was subtracted.
Agonistic activity (%)=100×[(absorbance of the drug-treated group)−(absorbance of the group without TAT reaction reagent)]/[(absorbance of Dex-treated group)−(absorbance of the group without TAT reaction reagent)]
On the other hand, the antagonistic activity was calculated as follows.
Antagonistic activity (%)=Inhibitory ratio (%) against TAT activity increase by Dex=100−100×[(absorbance of the drug-treated group)−(absorbance of the group without a drug)]/[(absorbance of Dex-treated group)−(absorbance of the group without a drug)]
With regard to the agonistic activity and the antagonistic activity, the results of 10% or more were expressed as O, while the results of less than 10% were expressed as X.

[2] = biological target: T1, human GRα protein (Homo sapiens, UniProt P04150); experiment: Binding inhibitory assay (displacement of 3H-dexamethasone from the cytoplasm fraction of baculovirus-infected insect cells); settings: 100 nM test compound; 3H-Dex; NSB with 10 μM dexamethasone; read-out: Binding Inhibitory ratio (%) of 100 nM of test compound
T1 construct: made in house; host or cells: insect cells infected with baculovirus; cytoplasm fraction used
T1 sequence (P04150 1-777): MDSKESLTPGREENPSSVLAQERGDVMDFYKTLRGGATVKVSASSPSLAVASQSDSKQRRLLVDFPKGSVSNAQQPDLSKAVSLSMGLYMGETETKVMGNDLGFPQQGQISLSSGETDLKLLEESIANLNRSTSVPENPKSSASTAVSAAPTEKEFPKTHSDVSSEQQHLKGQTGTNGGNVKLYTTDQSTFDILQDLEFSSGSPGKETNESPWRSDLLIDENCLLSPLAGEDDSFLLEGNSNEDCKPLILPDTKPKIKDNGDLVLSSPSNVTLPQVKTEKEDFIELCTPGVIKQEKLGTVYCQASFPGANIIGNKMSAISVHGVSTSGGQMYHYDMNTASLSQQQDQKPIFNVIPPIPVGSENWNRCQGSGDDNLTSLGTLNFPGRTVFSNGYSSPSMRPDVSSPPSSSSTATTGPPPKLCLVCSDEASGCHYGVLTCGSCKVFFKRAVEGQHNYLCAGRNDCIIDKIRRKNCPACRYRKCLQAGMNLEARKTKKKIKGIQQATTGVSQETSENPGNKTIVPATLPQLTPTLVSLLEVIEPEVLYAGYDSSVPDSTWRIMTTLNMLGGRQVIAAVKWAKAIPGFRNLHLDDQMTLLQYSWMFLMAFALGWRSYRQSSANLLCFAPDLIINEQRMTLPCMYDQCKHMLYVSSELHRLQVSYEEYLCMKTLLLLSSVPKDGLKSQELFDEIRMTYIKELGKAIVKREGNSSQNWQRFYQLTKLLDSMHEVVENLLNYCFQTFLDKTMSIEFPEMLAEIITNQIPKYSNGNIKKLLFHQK
Procedure: Insect cells, which had been infected with baculovirus for expressing human GRα protein, were suspended in an approximately equal volume of a binding buffer (10 mM Tris-Cl, 1.5 mM EDTA, 10% glycerol, 5 mM DTT, 20 mM sodium molybdate, pH 7.6). The mixture was rapidly frozen with liquid nitrogen, and then melted at room temperature. This cycle was repeated totally twice in order to break the cell membrane. The mixture was ultracentrifuged under 100,000 g at 4° C. for one hour to give the supernatant, which was the cytoplasm fraction containing human GRα protein.
A polypropylene 96-well plate (manufactured by Costar Corporation, etc.) was placed on ice, and DMSO or a test compound (each 1 μl) was put into each well. A 10 nM ^3H-Dex solution (50 μl; tritiated dexamethasone; manufactured by Amersham) in the binding buffer, and a GR protein solution, i.e., a solution by diluting the above cytoplasm fraction with the binding buffer (50 μl) were added to each well, and the plate was lightly shaken with a plate mixer, and then left to stand at 4° C. for 16 to 20 hours (the final concentration of DMSO: 1%).
A 5% solution of dextran-coated active carbon (manufactured by Sigma) suspended in the binding buffer (50 μl) was put into each well, and the plate was lightly shaken with a plate mixer for 30 seconds. Then, the plate was centrifuged at 2500 rpm at 4° C. for 5 minutes, and the ^3H count in the supernatant (50 μl) was measured by a TopCount (manufactured by Perkin-Elmer Corporation). Each test compound was tested twice.
The binding activity was calculated as follows. The mean ^3H count in the presence of dexamethason (Dex) 10 μM was considered as NSB (non-specific binding), and the binding inhibitory ratio in each well was calculated by the following equation.
Binding Inhibitory Ratio (%)=100×{1−(cpm value of each well−NSB)/(mean cpm value of DMSO-well−NSB)}
(cpm means count per minute)
The mean binding inhibitory ratio of each well was calculated by the above equation to give a binding inhibitory ratio of each test compound.

SMILES | inhibition at 0.1 µM [2] [%] | Agonistic activity of 10 μM test compound [1] | Antagonistic activity of 10 μM test compound [1] | activation at 10 µM [1] [%]
CCOC(=O)CCCNCC(O)(c1cn(Cc2ccccc2)c2cc([N+](=O)[O-])ccc12)C(F)(F)F (stereo not drawn) [Example 169, Ethyl 4-{[2-(1-benzyl-6-nitro-1H-indol-3-yl)-3,3,3-trifluoro-2-hydroxypropyl]-amino}butanoate] | 99 | ◯ | ◯ | –
CCOC(=O)CCCCNCC(O)(c1cn(Cc2ccccc2)c2cc([N+](=O)[O-])ccc12)C(F)(F)F (stereo not drawn) [Example 173, Ethyl 5-{[2-(1-benzyl-6-nitro-1H-indol-3-yl)-3,3,3-trifluoro-2-hydroxypropyl]-amino}pentanoate] | 88 | – | ◯ | < 10
CS(=O)(=O)C1CCN(CC(O)(c2cn(Cc3ccccc3)c3cc([N+](=O)[O-])ccc23)C(F)(F)F)CC1 (stereo not drawn) [Example 183, 2-(1-Benzyl-6-nitro-1H-indol-3-yl)-1,1,1-trifluoro-3-[4-(methylsulfonyl)piperidin-1-yl]propan-2-ol] | 88 | ◯ | ◯ | –
O=[N+]([O-])c1ccc2c(C(O)(CN3CCC(S(=O)(=O)c4ccccc4)CC3)C(F)(F)F)cn(Cc3ccccc3)c2c1 (stereo not drawn) [Example 184, 2-(1-Benzyl-6-nitro-1H-indol-3-yl)-1,1,1-trifluoro-3-[4-(phenylsulfonyl)piperidin-1-yl]propan-2-ol] | 97 | ◯ | X (the results of less than 10% were expressed as X) | –
O=[N+]([O-])c1ccc2c(C(O)(CN3CCC(Nc4ccccc4)CC3)C(F)(F)F)cn(Cc3ccccc3)c2c1 (stereo not drawn) [Example 185, 3-(4-Anilinopiperidin-1-yl)-2-(1-benzyl-6-nitro-1H-indol-3-yl)-1,1,1-trifluoropropan-2-ol] | 82 | – | ◯ | < 10
O=C(c1cccs1)C1CCN(CC(O)(c2cn(Cc3ccccc3)c3cc([N+](=O)[O-])ccc23)C(F)(F)F)CC1 (stereo not drawn) [Example 194, {1-[2-(1-Benzyl-6-nitro-1H-indol-3-yl)-3,3,3-trifluoro-2-hydroxypropyl]piperidin-4-yl}(2-thienyl)methanone] | 94 | ◯ | ◯ | –
O=C(c1cccnc1)C1CCN(CC(O)(c2cn(Cc3ccccc3)c3cc([N+](=O)[O-])ccc23)C(F)(F)F)CC1 (stereo not drawn) [Example 197, {1-[2-(1-Benzyl-6-nitro-1H-indol-3-yl)-3,3,3-trifluoro-2-hydroxypropyl]piperidin-4-yl}(pyridin-3-yl)methanone] | 94 | ◯ | ◯ | –

Continued, in another order:

inhibition at 0.1 µM [2] [%] | SMILES | Agonistic activity of 10 μM test compound [1] | Antagonistic activity of 10 μM test compound [1] | activation at 10 µM [1] [%]
95 | O=C(O)c1ccc(OC2CCN(CC(O)(c3cn(Cc4ccccc4)c4cc([N+](=O)[O-])ccc34)C(F)(F)F)CC2)cc1 (stereo not drawn) [Example 178, 4-({1-[2-(1-Benzyl-6-nitro-1H-indol-3-yl)-3,3,3-trifluoro-2-hydroxypropyl]-piperidin-4-yl}oxy)benzoic acid] | ◯ | ◯ | –
81 | CCOC(=O)Cc1ccc(OC2CCN(CC(O)(c3cn(Cc4ccccc4)c4cc([N+](=O)[O-])ccc34)C(F)(F)F)CC2)cc1 (stereo not drawn) [Example 179] | ◯ | ◯ | –
98 | O=C(O)Cc1ccc(OC2CCN(CC(O)(c3cn(Cc4ccccc4)c4cc([N+](=O)[O-])ccc34)C(F)(F)F)CC2)cc1 (stereo not drawn) [Example 180, [4-({1-[2-(1-Benzyl-6-nitro-1H-indol-3-yl)-3,3,3-trifluoro-2-hydroxypropyl]-piperidin-4-yl}oxy)phenyl]acetic acid] | ◯ | ◯ | –
87 | CCOC(=O)CCc1ccc(OC2CCN(CC(O)(c3cn(Cc4ccccc4)c4cc([N+](=O)[O-])ccc34)C(F)(F)F)CC2)cc1 (stereo not drawn) [Example 181, Ethyl 3-[4-({1-[2-(1-benzyl-6-nitro-1H-indol-3-yl)-3,3,3-trifluoro-2-hydroxypropyl]piperidin-4-yl}oxy)phenyl]propanoate] | ◯ | ◯ | –
99 | O=C(O)CCc1ccc(OC2CCN(CC(O)(c3cn(Cc4ccccc4)c4cc([N+](=O)[O-])ccc34)C(F)(F)F)CC2)cc1 (stereo not drawn) [Example 182, 3-[4-({1-[2-(1-Benzyl-6-nitro-1H-indol-3-yl)-3,3,3-trifluoro-2-hydroxypropyl]-piperidin-4-yl}oxy)phenyl]propanoic acid] | ◯ | ◯ | –
88 | CCOC(=O)Cc1ccc(OC2CCN(CC(O)(c3cn(Cc4ccccc4)c4cc([N+](=O)[O-])ccc34)C(F)(F)F)CC2)c(OC)c1 (stereo not drawn) [Example 200, Ethyl[4-({1-[2-(1-benzyl-6-nitro-1H-indol-3-yl)-3,3,3-trifluoro-2-hydroxypropyl]-piperidin-4-yl}oxy)-3-methoxyphenyl]acetate] | ◯ | ◯ | –
99 | COc1cc(CC(=O)O)ccc1OC1CCN(CC(O)(c2cn(Cc3ccccc3)c3cc([N+](=O)[O-])ccc23)C(F)(F)F)CC1 (stereo not drawn) [Example 201, [4-({1-[2-(1-Benzyl-6-nitro-1H-indol-3-yl)-3,3,3-trifluoro-2-hydroxypropyl]-piperidin-4-yl}oxy)-3-methoxyphenyl]acetic acid] | ◯ | ◯ | –
